Measurements reported in patent publication US10166271B2, “Methods for promoting hair growth” (THE REGENTS OF THE UNIVERSITY OF CALIFORNIA, priority 2006, dated 2019).

Assays:
CRF-OE mice = format: in vivo; settings: for Treated mice that died / did not survive / Hair growth: adult female CRF-OE mice; for Treated mice that died / did not survive: groups of five, minoxidil: a few days after the first injection, NBI 27914: within four weeks following the final injection; for Hair growth: 2 and 4 weeks (minoxidil) or four weeks (NBI 27914, surviving mouse) after the final injection
Description: The NBI 27914 administration regimen was as previously described by Martinez et al. (J. Pharmacol. Exp. Ther., 301:611-617, 2002).

young CRF-OE mice = settings: young CRF-OE mice; over a two-month period
Protocol: Each subcutaneous injection is given in a single puncture located along or about the midline of the back. Age-matched CRF-OE mice similarly injected with 0.1 ml vehicle alone are used as negative controls. Astressin B fragments are as described in Example 8. Alternatively, topical astressin B can be applied to the mouse's back, for example 0.05 mg, 0.5 mg, 5 mg, 50 mg, or 500 mg of an astressin B fragment once daily for at least five consecutive days
Hair growth (or hair loss) is assessed using the hair growth scale described in Example 1. The general conditions of treated and control mice, such as weight, back skin thickness, hair luster, skin wounds and indurations, are noted.

[1] = system: male patients between 18 and 41 years of age; post-menopausal women; settings: cited from earlier work
[2] = system: male and female androgenetic patients; settings: cited from earlier work
[3] = oral 1 mg/day for 2 years, male patients 18-41 years

SMILES | Treated mice that died / did not survive (CRF-OE mice) | Hair growth (CRF-OE mice) | Loss of hair compared with astressin B-treated mice (young CRF-OE mice) | Side effects ([1]; human, in vivo) | Cases in which further hair loss was prevented [1, 3] [%] | Cases with visible hair growth [1, 3] [%] | Efficacy of similar treatment regimen ([1]; post-menopausal women) | Side effects ([2]; human, in vivo) | Patients with fine hair growth (fraction) ([2]; two percent topical) | Patients with no hair growth (fraction) ([2]; two percent topical) | Patients with visible hair growth (fraction) ([2]; two percent topical) | Treated mice with induced patches of pigmentation (CRF-OE mice; sc 1% in 0.1 ml once per day x 10 days, by two weeks after the final injection, still-living mice)
CCCN(CC1CC1)c1nc(C)nc(Nc2c(Cl)cc(Cl)cc2Cl)c1Cl [NBI 27914] | 4 out of 5 | small areas of patchy hair growth | substantially more loss of hair | – | – | – | – | – | – | – | – | –
CC(C)(C)NC(=O)[C@H]1CC[C@H]2[C@@H]3CC[C@H]4NC(=O)C=C[C@]4(C)[C@H]3CC[C@]12C [finasteride] | – | – | – | lack of libido, lack of potency, and mild reduction in semen | 83 | 66 | ineffective | – | – | – | – | –
Nc1cc(N2CCCCC2)nc(N)[n+]1[O-] [minoxidil] | one treated mouse died | Moderate hair growth in the pigmented patches | substantially more loss of hair | – | – | – | – | scalp irritation and increased facial hair | approximately ⅓ | approximately ⅓ | approximately ⅓ | 3 of the 4
